Source: patent publication US11203600B2 (Denali Therapeutics Inc., priority 2017, dated 2021)

Target: GST-hRIPK1 (8-327) (Homo sapiens (Human), UniProt Q13546)
Assay: Fluorescent Polarization Binding (FP Binding) assay, RIPK1
Conditions: GST-hRIPK1 (8-327), mean of at least two independent experiments
How it was run: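 Compound displacement of 5 nM labelled ligand from 10 nM GST-hRIPK1 (8-327) was read as FP (531/595 nm) after 30 min at RT. Buffer: HEPES pH 7.5, NaCl, MgCl2, CHAPS, DTT, Pluronic; 1% DMSO final. IC50s were averaged over at least two independent runs.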

Chain of GST-hRIPK1 (8-327) (Q13546 8-327): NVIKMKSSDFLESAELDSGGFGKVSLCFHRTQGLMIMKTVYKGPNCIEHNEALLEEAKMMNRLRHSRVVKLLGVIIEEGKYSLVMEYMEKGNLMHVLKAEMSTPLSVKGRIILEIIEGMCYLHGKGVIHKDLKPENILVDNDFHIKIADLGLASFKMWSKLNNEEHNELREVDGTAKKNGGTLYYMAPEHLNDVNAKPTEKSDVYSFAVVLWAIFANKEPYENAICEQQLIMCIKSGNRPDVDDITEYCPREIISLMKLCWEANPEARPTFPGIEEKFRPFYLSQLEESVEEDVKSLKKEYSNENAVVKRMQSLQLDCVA

`N#Cc1cncc2c1OCCN(C(=O)C1CCN(c3ccnc4c(Cl)cnn34)C[C@@H]1F)C2` (stereo partly drawn) [Example 227, 4-[1-(3-chloropyrazolo[1,5-a]pyrimidin-7-yl)-(3,4)-trans-3-fluoro-piperidine-4-carbonyl]-3,5-dihydro-2H-pyrido[3,4-f][1,4]oxazepine-9-carbonitrile] and `N#Cc1cncc2c1OCCN(C(=O)C1CCN(c3ccnc4c(Cl)cnn34)CC1)C2` [Example 229, 4-[1-(3-chloropyrazolo[1,5-a]pyrimidin-7-yl)piperidine-4-carbonyl]-3,5-dihydro-2H-pyrido[3,4-f][1,4]oxazepine-9-carbonitrile] fall in the same range of IC50: 0.1 to 100 nM for the first, 0.1 to 100 nM for the second.

`N#Cc1cncc2c1OCCN(C(=O)C1CCN(c3ccnc4c(F)cnn34)CC1)C2` [Example 228, 4-[1-(3-fluoropyrazolo[1,5-a]pyrimidin-7-yl)piperidine-4-carbonyl]-3,5-dihydro-2H-pyrido[3,4-f][1,4]oxazepine-9-carbonitrile] and `O=C(C1CCN(c2ccnc3c(F)cnn23)C[C@@H]1F)N1CCOc2c(F)cncc2C1` (stereo partly drawn) [Example 256, (9-fluoro-3,5-dihydro-2H-pyrido[3,4-f][1,4]oxazepin-4-yl)-[(3,4)-trans-3-fluoro-1-(3-fluoropyrazolo[1,5-a]pyrimidin-7-yl)-4-piperidyl]methanone] fall in the same range of IC50: 0.1 to 100 nM for the first, 0.1 to 100 nM for the second.

First: N#Cc1cncc2c1OCC1(CC1)N(C(=O)C1CCN(c3ncc(F)cn3)CC1)C2 [Example 230, 4-[1-(5-fluoropyrimidin-2-yl)piperidine-4-carbonyl]spiro[2,5-dihydropyrido[3,4-f][1,4]oxazepine-3,1′-cyclopropane]-9-carbonitrile]
Second: N#Cc1cncc2c1OCCN(C(=O)C1CCN(c3ncc(F)cn3)CCO1)C2 (centres unmarked) [Example 231, 4-[4-(5-fluoropyrimidin-2-yl)-1,4-oxazepane-7-carbonyl]-3,5-dihydro-2H-pyrido[3,4-f][1,4]oxazepine-9-carbonitrile]
The IC50 of the first is lower: 100 to 1000 nM for the first, > 1000 nM for the second.

Compared with `COc1cc(C(F)(F)F)nc(N2CCC(F)(C(=O)N3CCOc4c(C#N)cncc4C3)CC2)n1` [Example 232, 4-[4-fluoro-1-[4-methoxy-6-(trifluoromethyl)pyrimidin-2-yl]piperidine-4-carbonyl]-3,5-dihydro-2H-pyrido[3,4-f][1,4]oxazepine-9-carbonitrile], `COC1(C(=O)N2CCOc3c(C#N)cncc3C2)CCN(c2ncc(F)c(C3CC3)n2)CC1` [Example 233, 4-[1-(4-cyclopropyl-5-fluoro-pyrimidin-2-yl)-4-methoxy-piperidine-4-carbonyl]-3,5-dihydro-2H-pyrido[3,4-f][1,4]oxazepine-9-carbonitrile] is lower in IC50: 100 to 1000 nM for the first, 0.1 to 100 nM for the second. The second is the more potent here.

`COC1(C(=O)N2CCOc3ccncc3C2)CCN(c2ncc(F)cn2)CC1` [Example 234, 3,5-dihydro-2H-pyrido[3,4-f][1,4]oxazepin-4-yl-[1-(5-fluoropyrimidin-2-yl)-4-methoxy-4-piperidyl]methanone] and `COc1nc(N2CCC(OC)(C(=O)N3CCOc4ccncc4C3)CC2)ncc1F` [Example 235, 3,5-dihydro-2H-pyrido[3,4-f][1,4]oxazepin-4-yl-[1-(5-fluoro-4-methoxy-pyrimidin-2-yl)-4-methoxy-4-piperidyl]methanone] fall in the same range of IC50: 0.1 to 100 nM for the first, 0.1 to 100 nM for the second.

`COc1nc(N2CCC(C(=O)N3CCOc4c(F)cncc4C3)CC2)ncc1F` [Example 236] and `COc1nc(N2CCC(C(=O)N3CCOc4ccncc4C3)CC2)ncc1F` [Example 238] fall in the same range of IC50: 0.1 to 100 nM for the first, 0.1 to 100 nM for the second.

First: COc1nc(N2CCC(C(=O)N3CCCc4ccccc4C3)CC2)ncc1F [Example 237, [1-(5-fluoro-4-methoxy-pyrimidin-2-yl)-4-piperidyl]-(1,3,4,5-tetrahydro-2-benzazepin-2-yl)methanone]
Second: O=C(C1CCN(c2ncc(F)cn2)C[C@@H]1F)N1CCOc2ccncc2C1 (stereo partly drawn) [Example 254, 3,5-dihydro-2H-pyrido[3,4-f][1,4]oxazepin-4-yl-[(3,4)-trans-3-fluoro-1-(5-fluoropyrimidin-2-yl)-4-piperidyl]methanone]
The IC50 of the first is lower: 0.1 to 100 nM for the first, 100 to 1000 nM for the second.

First: COC1(C(=O)N2CCOc3c(C#N)cncc3C2)CCN(c2ncccn2)CC1 [Example 239, 4-(4-methoxy-1-pyrimidin-2-yl-piperidine-4-carbonyl)-3,5-dihydro-2H-pyrido[3,4-f][1,4]oxazepine-9-carbonitrile]
Second: N#Cc1cncc2c1OCCN(C(=O)C1=CCN(c3ncc(F)cn3)CC1)C2 [Example 245, 4-[1-(5-fluoropyrimidin-2-yl)-3,6-dihydro-2H-pyridine-4-carbonyl]-3,5-dihydro-2H-pyrido[3,4-f][1,4]oxazepine-9-carbonitrile]
The IC50 of the first is lower: 0.1 to 100 nM for the first, 100 to 1000 nM for the second.

`CC1(C(=O)N2CCOc3c(C#N)cncc3C2)CCCCO1` (centres unmarked) [Example 240, 4-(2-methyltetrahydropyran-2-carbonyl)-3,5-dihydro-2H-pyrido[3,4-f][1,4]oxazepine-9-carbonitrile] and `CC(CF)(C(=O)N1CCOc2c(C#N)cncc2C1)C(F)F` (centres unmarked) [Example 266, 4-[3,3-Difluoro-2-(fluoromethyl)-2-methyl-propanoyl]-3,5-dihydro-2H-pyrido[3,4-f][1,4]oxazepine-9-carbonitrile] fall in the same range of IC50: 100 to 1000 nM for the first, 100 to 1000 nM for the second.

First: N#Cc1cncc2c1OCCN(C(=O)C1CCN(c3ncc(F)cn3)C[C@@H]1F)C2 (stereo partly drawn) [Example 241, 4-[(3,4)-cis-3-fluoro-1-(5-fluoropyrimidin-2-yl)piperidine-4-carbonyl]-3,5-dihydro-2H-pyrido[3,4-f][1,4]oxazepine-9-carbonitrile]
Second: O=C(C1CCN(c2ncc(F)cn2)C[C@@H]1F)N1CCOc2c(F)cncc2C1 (some centres unmarked) [Example 247]
The IC50 of the first is higher: 100 to 1000 nM for the first, 0.1 to 100 nM for the second. The second is the more potent here.

Compared with `N#Cc1cncc2c1OCCN(C(=O)C1CCN(c3ncc(F)cn3)C[C@@H]1F)C2` (stereo partly drawn) [Example 242, 4-[(3,4)-trans-3-fluoro-1-(5-fluoropyrimidin-2-yl)piperidine-4-carbonyl]-3,5-dihydro-2H-pyrido[3,4-f][1,4]oxazepine-9-carbonitrile], `N#Cc1cncc2c1OCCN(C(=O)C1CCN(c3ncc(F)cn3)CC1(F)F)C2` (centres unmarked) [Example 243, 4-[3,3-difluoro-1-(5-fluoropyrimidin-2-yl)piperidine-4-carbonyl]-3,5-dihydro-2H-pyrido[3,4-f][1,4]oxazepine-9-carbonitrile] is higher in IC50: 0.1 to 100 nM for the first, 100 to 1000 nM for the second. The first is the more potent here.

`N#Cc1cncc2c1OCCN(C(=O)C1CCN(c3nccc4ncnn34)CC1(F)F)C2` (centres unmarked) [Example 246, 4-[3,3-difluoro-1-([1,2,4]triazolo[1,5-c]pyrimidin-5-yl)piperidine-4-carbonyl]-3,5-dihydro-2H-pyrido[3,4-f][1,4]oxazepine-9-carbonitrile] and `O=C(C1CCN(c2nccc3ncnn23)CC1(F)F)N1CCOc2c(F)cncc2C1` (centres unmarked) [Example 251, [3,3-difluoro-1-([1,2,4]triazolo[1,5-c]pyrimidin-5-yl)-4-piperidyl]-(9-fluoro-3,5-dihydro-2H-pyrido[3,4-f][1,4]oxazepin-4-yl)methanone] fall in the same range of IC50: 100 to 1000 nM for the first, 100 to 1000 nM for the second.

`O=C(C1=CCN(c2ncc(F)cn2)CC1)N1CCOc2c(F)cncc2C1` [Example 248] and `O=C(C1CCN(c2nccc3ncnn23)C[C@@H]1F)N1CCOc2c(F)cncc2C1` (some centres unmarked) [Example 255] fall in the same range of IC50: 100 to 1000 nM for the first, 100 to 1000 nM for the second.

`N#Cc1cncc2c1OCCN(C(=O)C1CCN(c3ccnc4ccnn34)C[C@@H]1F)C2` (stereo partly drawn) [Example 249, 4-[(3,4)-trans-3-fluoro-1-pyrazolo[1,5-a]pyrimidin-7-yl-piperidine-4-carbonyl]-3,5-dihydro-2H-pyrido[3,4-f][1,4]oxazepine-9-carbonitrile] and `O=C(C1CCN(c2ccnc3ccnn23)C[C@@H]1F)N1CCOc2c(F)cncc2C1` (stereo partly drawn) [Example 253, (9-fluoro-3,5-dihydro-2H-pyrido[3,4-f][1,4]oxazepin-4-yl)-[(3,4)-trans-3-fluoro-1-pyrazolo[1,5-a]pyrimidin-7-yl-4-piperidyl]methanone] fall in the same range of IC50: 0.1 to 100 nM for the first, 0.1 to 100 nM for the second.

`N#Cc1cncc2c1OCCN(C(=O)C1CCN(c3nccc4ncnn34)C[C@@H]1F)C2` (stereo partly drawn) [Example 250, 4-[(3,4)-trans-3-fluoro-1-([1,2,4]triazolo[1,5-c]pyrimidin-5-yl)piperidine-4-carbonyl]-3,5-dihydro-2H-pyrido[3,4-f][1,4]oxazepine-9-carbonitrile] and `O=C(C1CCN(c2nccn3ncnc23)C[C@@H]1F)N1CCOc2c(F)cncc2C1` (stereo partly drawn) [Example 257, (9-fluoro-3,5-dihydro-2H-pyrido[3,4-f][1,4]oxazepin-4-yl)-[(3,4)-trans-3-fluoro-1-([1,2,4]triazolo[1,5-a]pyrazin-8-yl)-4-piperidyl]methanone] fall in the same range of IC50: 100 to 1000 nM for the first, 100 to 1000 nM for the second.

`O=C(C1CCN(c2ccnc3ccnn23)CC1(F)F)N1CCOc2c(F)cncc2C1` (centres unmarked) [Example 252, (3,3-difluoro-1-pyrazolo[1,5-a]pyrimidin-7-yl-4-piperidyl)-(9-fluoro-3,5-dihydro-2H-pyrido[3,4-f][1,4]oxazepin-4-yl)methanone] and `CC(F)(F)C(C)(CF)C(=O)N1CCOc2c(C#N)cncc2C1` (centres unmarked) [Example 267, 4-[3,3-Difluoro-2-(fluoromethyl)-2-methyl-butanoyl]-3,5-dihydro-2H-pyrido[3,4-f][1,4]oxazepine-9-carbonitrile] fall in the same range of IC50: 100 to 1000 nM for the first, 100 to 1000 nM for the second.

`Cc1ncc2c(c1C#N)OCCN(C(=O)C(C)(C)C(F)F)C2` [Example 262, 4-(3,3-difluoro-2,2-dimethyl-propanoyl)-8-methyl-3,5-dihydro-2H-pyrido[3,4-f][1,4]oxazepine-9-carbonitrile] and `CC(C(=O)N1CCOc2c(C#N)cncc2C1)(C(F)F)C(F)F` [Example 268, 4-[2-(difluoromethyl)-3,3-difluoro-2-methyl-propanoyl]-3,5-dihydro-2H-pyrido[3,4-f][1,4]oxazepine-9-carbonitrile] fall in the same range of IC50: 100 to 1000 nM for the first, 100 to 1000 nM for the second.

In the case of `[2H]C1([2H])Oc2c(C#N)cncc2CN(C(=O)C(C)(C)C(F)F)C1([2H])[2H]` [Example 263, 2,2,3,3-tetradeuterio-4-(3,3-difluoro-2,2-dimethyl-propanoyl)-5H-pyrido[3,4-f][1,4]oxazepine-9-carbonitrile], the IC50 is reported as 0.1 to 100 nM.
